Laboratory results from patent US12202828B2, “Bicyclic heterocycle compounds and their uses in therapy” (ASTEX THERAPEUTICS LIMITED, priority 2013, dated 2025).
Where “and” joins values, the source holds several entries; their conditions need not be identical. Identical values can stand only once. Counter-ions that a name gives are not always drawn. Like-named read-outs stand apart in the source and are kept apart here.

Tests used:
Format in all cases: cell-based
hERG ion channel = target: T1, hERG ion channel (Homo sapiens, UniProt Q12809); test: Population Patch Clamp (PPC) hERG assay in CHO K1 cells; conditions: for IC50: CHO K1 cells stably transfected with hERG
T1 construct: expressed in transfected cells; host or cells: CHO K1
T1 sequence (Q12809 whole entry): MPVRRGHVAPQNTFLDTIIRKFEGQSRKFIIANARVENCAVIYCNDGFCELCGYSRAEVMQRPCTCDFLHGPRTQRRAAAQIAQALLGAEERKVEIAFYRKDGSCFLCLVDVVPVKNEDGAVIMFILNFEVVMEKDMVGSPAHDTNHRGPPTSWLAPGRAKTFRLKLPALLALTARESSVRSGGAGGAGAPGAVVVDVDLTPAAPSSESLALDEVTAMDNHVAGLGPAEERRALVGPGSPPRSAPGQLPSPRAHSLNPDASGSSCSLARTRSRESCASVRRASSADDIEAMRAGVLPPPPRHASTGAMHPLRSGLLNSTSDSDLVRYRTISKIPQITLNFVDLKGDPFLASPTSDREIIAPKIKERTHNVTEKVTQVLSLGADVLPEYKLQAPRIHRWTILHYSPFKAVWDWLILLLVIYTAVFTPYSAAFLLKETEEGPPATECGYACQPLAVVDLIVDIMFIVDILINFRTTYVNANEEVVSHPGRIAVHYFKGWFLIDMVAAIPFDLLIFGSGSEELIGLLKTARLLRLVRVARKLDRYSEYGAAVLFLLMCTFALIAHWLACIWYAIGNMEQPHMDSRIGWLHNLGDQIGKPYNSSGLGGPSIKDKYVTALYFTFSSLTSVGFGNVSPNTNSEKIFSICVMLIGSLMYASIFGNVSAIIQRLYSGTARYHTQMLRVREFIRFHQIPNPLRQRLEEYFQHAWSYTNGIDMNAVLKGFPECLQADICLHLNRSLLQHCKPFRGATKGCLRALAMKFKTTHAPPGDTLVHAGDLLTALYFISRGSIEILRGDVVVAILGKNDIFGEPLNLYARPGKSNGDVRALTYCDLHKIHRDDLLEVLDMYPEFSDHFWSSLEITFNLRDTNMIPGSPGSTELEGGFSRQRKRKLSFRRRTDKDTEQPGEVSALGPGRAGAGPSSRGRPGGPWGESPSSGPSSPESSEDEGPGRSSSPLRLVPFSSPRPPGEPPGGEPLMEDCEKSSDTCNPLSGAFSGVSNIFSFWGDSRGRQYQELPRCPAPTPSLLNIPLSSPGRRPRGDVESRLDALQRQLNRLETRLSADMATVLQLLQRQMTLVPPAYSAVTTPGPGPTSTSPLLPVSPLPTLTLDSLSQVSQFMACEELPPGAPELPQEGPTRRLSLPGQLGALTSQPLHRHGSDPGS
Experimental: Inhibition of the hERG channel was measured by automated patch clamp assay in CHO K1 cells, stably transfected with the hERG ion channel. PPC measurements were performed using an IonWorks Quattro instrument (Molecular Devices Corporation, Union City, CA) using a 384 well PatchPlate (Molecular Devices Corporation) with 64 apertures per well. Each concentration of test compound was tested in duplicate wells. Amphotericin B was used to obtain electrical access to the cell interior at a final concentration of 200 μg/mL. Human ether-à-gogo related gene (hERG) currents were measured with a prepulse to +40 mV (2 s) from the holding potential of −80 mV, followed by a step to −50 mV (2 s) to elicit the deactivating tail currents, before returning to the holding potential for 1s. Compounds were incubated for 600s between the pre- and post-compound reads. The external recording solution used was 130 mM Na Gluconate, 20 mM NaCl, 4 mM KCl, 1 mM MgCl2, 1.8 mM CaCl2, 10 mM Hepes, 5 mM Glucose, pH to 7.3 with NaOH. All data were filtered for seal quality, seal drop, and current amplitude. The maximum current amplitude of the 3rd pulse tail current was calculated before (Pre) and after (Post) compound addition and the amount of block assessed by dividing the Post-compound current amplitude by the Pre-compound current amplitude.

[1] = target: T2, XIAP-Caspase-9 in HEK293-XIAP-Caspase-9 cells (Homo sapiens, UniProt P98170); test: HEK293-XIAP-Caspase-9 immunoprecipitation (IP) MSD assay; conditions: compound 2 h at 37° C.; read-out: HEK293-X-C9 IP
T2 construct: FLAG; expressed in transfected cells
T2 sequence (P98170 whole entry): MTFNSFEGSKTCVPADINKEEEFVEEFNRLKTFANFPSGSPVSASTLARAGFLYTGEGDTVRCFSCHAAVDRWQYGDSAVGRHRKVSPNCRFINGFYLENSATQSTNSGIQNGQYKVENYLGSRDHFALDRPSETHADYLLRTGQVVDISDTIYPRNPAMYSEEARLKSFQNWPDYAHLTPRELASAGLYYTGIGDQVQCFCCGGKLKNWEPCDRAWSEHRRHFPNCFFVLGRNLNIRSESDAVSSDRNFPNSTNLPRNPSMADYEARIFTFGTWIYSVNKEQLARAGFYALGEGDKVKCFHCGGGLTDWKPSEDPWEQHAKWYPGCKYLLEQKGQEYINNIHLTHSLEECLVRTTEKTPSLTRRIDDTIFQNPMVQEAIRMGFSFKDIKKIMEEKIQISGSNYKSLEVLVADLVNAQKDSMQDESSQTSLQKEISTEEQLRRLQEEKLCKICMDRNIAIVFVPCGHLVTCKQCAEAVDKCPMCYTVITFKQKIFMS
Experimental: Stable HEK293-XIAP-Caspase-9 cells were plated out into 96-well plates [200 μl/well at 1×10^6 cells/mL in cultured complete medium (DMEM+10% FBS+0.5 mg/mL Geneticin (Invitrogen)] and left overnight at 37° C. to recover. Compounds were added to duplicate wells in 0.1% DMSO for 2 h at 37° C. Cells were lysed in 50 μl 1×MSD lysis buffer (1% Triton X-100 in 20 mM Tris·Cl (pH 7.6), 150 mM NaCl including protease inhibitors) for 20 min rocking at room temperature. Streptavidin high bind MSD plate (L15SB-2) were coated with biotinylated anti-FLAG M2 antibody (Sigma F9291) at 25 μl/well with a 5 μg/mL dilution of antibody in PBS for 1 h, shaking; followed by blocking for 1 h with 150 μl 3% BSA/TBST. Cell lysate (25 μl) was added to the 96-well anti-FLAG coated MSD plate and placed on shaker for 4 h at room temperature. […] Plates were washed 4 times with 150 μl TBST, and 150 μl/well 1×MSD read buffer (R92TC-2) added before reading each plate.
EC50 values were determined from dose-response plots using nonlinear least-squares analysis.

[2] = tested on: EVSA-T (human breast carcinoma); test: Anti-proliferative activity, Alamar Blue assay, EVSA-T; conditions: 72 hours compound, read-out: EVSA-T prolif
Experimental: The method is based on the ability of viable cells to reduce resazurin to its fluorescent product resorufin. For each proliferation assay cells are plated onto 96 well plates and allowed to recover for 16 hours prior to the addition of inhibitor compounds (in 0.1% DMSO v/v) for a further 72 hours.
The anti-proliferative activities of compounds of the invention can be determined by measuring the ability of the compounds to inhibit growth in 3 cancer cell lines: • EVSA-T (human breast carcinoma) DSMZ cat. no.

| SMILES | hERG PPC (PI) (hERG ion channel; @ 100 μM) [% @ 100] | EC50 [1] | also measured |
| --- | --- | --- | --- |
| C[C@@H]1CN(CC(=O)N2CC(C)(C)c3c2cc(Cc2ccc(F)cc2F)c(=O)n3C)[C@@H](CN2[C@H](C)COC[C@H]2C)CN1 [Example 12, 6-[(2,4-Difluorophenyl)methyl]-1-{2-[(2R,5R)-2-{[(3R,5R)-3,5-dimethylmorpholin-4-yl]methyl}-5-methylpiperazin-1-yl]acetyl}-3,3,4-trimethyl-1H,2H,3H,4H,5H-pyrrolo [3,2-b]pyridin-5-one dihydrochloride] | 41 | 0.69 nM |  |
| C[C@@H]1CN(CC(=O)N2CC(C)(C)c3nc(CO)c(Cc4cccc(F)c4)cc32)[C@@H](CN2CCOC[C@H]2C)CN1 [Example 15, 1-{6-[(3-Fluorophenyl)methyl]-5-(hydroxymethyl)-3,3-dimethyl-1H,2H,3H-pyrrolo[3,2-b]pyridin-1-yl}-2-[(2R,5R)-5-methyl-2-{[(3R)-3-methylmorpholin-4-yl]methyl}piperazin-1-yl]ethan-1-one dihydrochloride] | 55 | 4.9 nM | EC50 ([2]; dihydrochloride): 7.8 nM; EC50 ([2]; Homo sapiens, EVSA-T, 72 h): < 10 nM |
| C[C@@H]1CN(CC(=O)N2CC(C)(C)c3cc(=O)n(Cc4ccc(F)cc4)cc32)[C@@H](CN2CCOC[C@H]2C)CN1 [Example 17, 6-[(4-Fluorophenyl)methyl]-3,3-dimethyl-1-{2-[(2R,5R)-5-methyl-2-{[(3R)-3-methylmorpholin-4-yl]methyl}piperazin-1-yl]acetyl}-1H,2H,3H,5H,6H-pyrrolo[2,3-c]pyridin-5-one dihydrochloride] |  | 28 nM | hERG PPC (PI) (hERG ion channel; @ 300 μM): 59% @ 300 |
| C[C@@H]1CN(CC(=O)N2CC(C)(C)c3c2cc(Cc2ccc(F)cc2)c(=O)n3C)[C@@H](CN2C[C@H](C)OC[C@H]2C)CN1 [Example 18, 1-{2-[(2R,5R)-2-{[(2S,5R)-2,5-Dimethylmorpholin-4-yl]methyl}-5-methylpiperazin-1-yl]acetyl}-6-[(4-fluorophenyl)methyl]-3,3,4-trimethyl-1H,2H,3H,4H,5H-pyrrolo[3,2-b]pyridin-5-one trihydrochloride] |  | 1.2 nM | hERG PPC (PI) (hERG ion channel; @ 75 μM): 44% @ 75 |
| C[C@@H]1CN(CC(=O)N2CC(C)(C)c3c2cc(Cc2ccc(F)cc2F)c(=O)n3C)[C@@H](CN2CCOC[C@H]2C)CN1 [Example 19, 6-[(2,4-Difluorophenyl)methyl]-3,3,4-trimethyl-1-{2-[(2R,5R)-5-methyl-2-{[(3R)-3-methylmorpholin-4-yl]methyl}piperazin-1-yl]acetyl}-1H,2H,3H,4H,5H-pyrrolo[3,2-b]pyridin-5-one dihydrochloride] | 42 | 1.2 nM |  |
| C[C@@H]1CN(CC(=O)N2CC(C)(C)c3cc(=O)n(Cc4ccc(F)cc4F)cc32)[C@@H](CN2[C@H](C)COC[C@H]2C)CN1 [Example 20, 6-[(2,4-Difluorophenyl)methyl]-1-{2-[(2R,5R)-2-{[(3R,5R)-3,5-dimethylmorpholin-4-yl]methyl}-5-methylpiperazin-1-yl]acetyl}-3,3-dimethyl-1H,2H,3H,5H,6H-pyrrolo[2,3-c]pyridin-5-one dihydrochloride] | 44 | 6.3 nM |  |
| C[C@@H]1CN(CC(=O)N2CC(C)(C)c3cc(=O)n(Cc4ccc(F)cc4F)cc32)[C@@H](CN2C[C@H](C)OC[C@H]2C)CN1.Cl.Cl [Example 22, 6-[(2,4-Difluorophenyl)methyl]-1-{2-[(2R,5R)-2-{[(2S,5R)-2,5-dimethylmorpholin-4-yl]methyl}-5-methylpiperazin-1-yl]acetyl}-3,3-dimethyl-1H,2H,3H,5H,6H-pyrrolo[2,3-c]pyridin-5-one dihydrochloride] | 47 | 3.9 nM |  |
| C[C@@H]1CN(CC(=O)N2CC(C)(C)c3c2cc(Cc2ccc(F)cc2F)c(=O)n3N)[C@@H](CN2CCOC[C@H]2C)CN1.Cl.Cl [Example 23, 4-Amino-6-[(2,4-difluorophenyl)methyl]-3,3-dimethyl-1-{2-[(2R,5R)-5-methyl-2-{[(3R)-3-methylmorpholin-4-yl]methyl}piperazin-1-yl]acetyl}-1H,2H,3H,4H,5H-pyrrolo[3,2-b] pyridin-5-one dihydrochloride] | 63 | 0.77 nM |  |
| C[C@@H]1CN(CC(=O)N2CC(C)(C)c3c2cc(Cc2ccc(F)cc2)c(=O)n3N)[C@@H](CN2CCOC[C@H]2C)CN1 [Example 24, 4-Amino-6-[(4-fluorophenyl)methyl]-3,3-dimethyl-1-{2-[(2R,5R)-5-methyl-2-{[(3R)-3-methylmorpholin-4-yl]methyl}piperazin-1-yl]acetyl}-1H,2H,3H,4H,5H-pyrrolo[3,2-b]pyridin-5-one dihydrochloride] | 40 | 0.58 nM and 1.1 nM |  |
| CCCCc1cc2c(n(N)c1=O)C(C)(C)CN2C(=O)CN1C[C@@H](C)NC[C@@H]1CN1[C@H](C)COC[C@H]1C [Example 30, 4-Amino-6-butyl-1-{2-[(2R,5R)-2-{[(3R,5R)-3,5-dimethylmorpholin-4-yl]methyl}-5-methylpiperazin-1-yl]acetyl}-3,3-dimethyl-1H,2H,3H,4H,5H-pyrrolo[3,2-b]pyridin-5-one dihydrochloride] |  | 1.2 nM and 1.4 nM | IC50 (hERG ion channel): 230000 nM |
| Cc1c2c(cn(Cc3ccc(F)cc3F)c1=O)N(C(=O)CN1C[C@@H](C)NC[C@@H]1CN1CCOC[C@H]1C)CC2(C)C [Example 31, 6-[(2,4-Difluorophenyl)methyl]-3,3,4-trimethyl-1-{2-[(2R,5R)-5-methyl-2-{[(3R)-3-methylmorpholin-4-yl]methyl}piperazin-1-yl]acetyl}-1H,2H,3H,5H,6H-pyrrolo[2,3-c]pyridin-5-one dihydrochloride] |  | 0.94 nM and 2.2 nM | IC50 (hERG ion channel): 140000 nM |
| CCCCc1cc2c([nH]c1=O)C(C)(C)CN2C(=O)CN1C[C@@H](C)NC[C@@H]1CN1[C@H](C)COC[C@H]1C [Example 32, 6-Butyl-1-{2-[(2R,5R)-2-{[(3R,5R)-3,5-dimethylmorpholin-4-yl]methyl}-5-methylpiperazin-1-yl]acetyl}-3,3-dimethyl-1H,2H,3H,4H,5H-pyrrolo[3,2-b]pyridin-5-one dihydrochloride] |  | 1.5 nM | hERG PPC (PI) (hERG ion channel; @ 500 μM): 55% @ 500 |
| CCCCc1cc2c(n(C)c1=O)C(C)(C)CN2C(=O)CN1C[C@@H](C)NC[C@@H]1CN1[C@H](C)COC[C@H]1C [Example 33, 6-Butyl-1-{2-[(2R,5R)-2-{[(3R,5R)-3,5-dimethylmorpholin-4-yl]methyl}-5-methylpiperazin-1-yl]acetyl}-3,3,4-trimethyl-1H,2H,3H,4H,5H-pyrrolo[3,2-b]pyridin-5-one dihydrochloride] |  | 2.4 nM | hERG PPC (PI) (hERG ion channel; @ 31.3 μM): 33% @ 31.3 |
| CCCCc1cc2c(nc1CO)C(C)(C)CN2C(=O)CN1C[C@@H](C)NC[C@@H]1CN1[C@H](C)COC[C@H]1C [Example 34, 1-[6-Butyl-5-(hydroxymethyl)-3,3-dimethyl-1H,2H,3H-pyrrolo[3,2-b]pyridin-1-yl]-2-[(2R,5R)-2-{[(3R,5R)-3,5-dimethylmorpholin-4-yl]methyl}-5-methylpiperazin-1-yl] ethan-1-one dihydrochloride] |  | 3.8 nM | IC50 (hERG ion channel): 55000 nM |
